The source of these data is patent US6369109B1, “Betulinic acid and derivatives thereof useful for the treatment of neuroectodermal tumor” (Deutsches Krebsforschungszentrum Stiftung des Offentlichen …, priority 1998, dated 2002).

The test system of this assay is FLICE, CPP32 and PARP in SH-EP neuroblastoma cells. Description: Western blot of FLICE (caspase-8), CPP32 (caspase-3) and PARP cleavage. Format: cell-based, human. Here is the method: Cells were lysed for 30 min at 4° C. in PBS with 0.5% Triton X (Serva, Heidelberg, Germany) and 1 mM phenylmethylsulfonyl fluoride (Sigma, Deisenhofen, Germany) followed by high-speed centrifugation. Membrane proteins were eluted in buffer containing 0.1 M glycine. PH 3.0 and 1.5 M Tris, pH 8.8. Protein concentration was assayed using bicinchoninic acid (Pierce Chemical Co., Rockford, Ill.). Forty μg of protein per lane were separated by 12% SDS-PAGE and electroblotted onto nitrocellulose (Amersham, Braunschweig, Germany). Equal protein loading was controlled by Ponceau red staining of membranes. After blocking for 1 h in PBS supplemented with 2% BSA (Sigma) and 0.1% Tween 20 (Sigma), immunodetection of FLICE, CPP32, PARP, Bax, Bcl-x, Bcl-2, and p53 protein was done using mouse anti-FLICE monoclonal antibody C15 (1:5 dilution of hybridoma supernatant), mouse anti-CPP32 monoclonal antibody (1:1000, Transduction Laboratories, Lexington, KY), rabbit anti-PARP polyclonal antibody (1:10000, Enzyme Systems Products), rabbit anti-Bax polyclonal antibody (1:500, Calbiochem, Bad Soden, Germany), rabbit anti-Bcl-x polyclonal antibody (1:1000, Santa Cruz Biotechnology, Santa Cruz, Calif.), mouse anti-p53 monoclonal antibody (1:10000, Transduction Laboratories), and goat anti-mouse 1gG or goat antirabbit IgG (1:5000, Santa Cruz Biotechnology), ECL (Amersham) was used for detection.
FIG. 2B and FIG. 2C show the cleavage of FLICE, CPP32 and PARP. SH-EP neuroblastoma cells were treated with 10 μg/ml betulinic acid for indicated times or with 0.5 μg/ml doxorubicin for 24 h. Forty μg of protein per lane, isolated from cell lysates, were separated by 12% SDS-PAGE, Immunodetection of FLICE (FIG. 2B). CPP32 (FIG. 2C), and PARP (C) proteins was performed by mouse anti-FLICE monoclonal antibody, mouse anti-CPP32 monoclonal antibody, or rabbit anti-PARP polyclonal antibody and ECL.
SH-EP neuroblastoma cells were treated with 10 μg/ml betulinic acid for 24 h with or without 60 μM zVAD-frnk. Western blot analysis for FLICE and PARP cleavage was performed as described for FIG. 2B.
Cells were lysed for 30 mm at 4° C. in PBS with 0.5% Triton X (Serva, Heidelberg, Germany) and 1 mM PMSF (Sigma, Deisenhofen, Germany) followed by high-speed centrifugation. Membrane proteins were eluted in buffer containing 0.1 M glycine, pH 3.0 and 1.5 M Tris, pH 8.8. Protein concentration was assayed using bicinchoninic acid (Pierce, Rockford, Ill.). 40 μg protein per lane was separated by 12% or 15% SDS-PAGE and electroblotted onto nitrocellulose (Amersham, Braunschweig, Germany). Equal protein loading was controlled by Ponceau red staining of membranes. […]
For determination of mitochondrial membrane potential, cells (5×10^5/ml) were incubated with 3,3′-dihexyloxacarbocyanide iodide (DiOC6(3), 40 nM, Molecular Probes, Inc., Eugene, Oreg.) for 15 min at 37° C. and analyzed on a flow cytometer (FACScan) (Zamzarni et al., 1996 J. Exp. Med. 183:1533-44). […]
For orientation: In western blotting, separated proteins are transferred to a membrane and probed.

The mark [1] stands for this setting: 0.5 μg/ml Doxo or 10 μg/ml Bet A, 24 h, FIG. 14A.

Residues, ends and D or L forms follow the SMILES beside them. *: point of attachment. Cbz = O=C(OCc1ccccc1)*; CH2F = FC*

`COC(=O)C[C@H](NC(=O)[C@H](C)NC(=O)[C@@H](NC(=O)OCc1ccccc1)C(C)C)C(=O)CF` [zVAD-fmk, benzyloxycarbonyl-Val-Ala-Asp-Fluoromethylketone] (Cbz-Val-Ala-Asp(OMe)-CH2F): where the note is “60 μM zVAD-fmk, 10 μg/ml betulinic acid 24 h, FIG. 2E”, the “effect of inhibitor on betulinic acid-induced cleavage of FLICE and PARP” value is “inhibited cleavage of FLICE and PARP”.
Take `COc1cccc2c1C(=O)c1c(O)c3c(c(O)c1C2=O)C[C@@](O)(C(=O)CO)C[C@@H]3O[C@H]1C[C@H](N)[C@H](O)[C@H](C)O1` [doxorubicin]: under setting [1], the “caspase-3 (and PARP) processing in Bcl-2 or Bcl-XL overexpressing cells” value was “inhibited in Bcl-2 and Bcl-XL transfected cells”; the “caspase-8 processing in Bcl-2 or Bcl-XL overexpressing cells” value is “cleaved into p43 and p41 intermediates and the active p18 subunit, regardless of Bcl-2 or Bcl-XL overexpression”. The “caspase cleavage in cells sorted into ΔΨm^high and ΔΨm^low” value (0.5 μg/ml Doxorubicin or 10 μg/ml Bet A, 18 h, FIG. 14B-2) is “CD95-L induction and cleavage of caspase-8 was found in both ΔΨm^high and ΔΨm^low cells”. For the same compound, for the setting “10 μg/ml betulinic acid, 0.5 μg/ml doxorubicin 24 h, FIG. 2B”, the “cleavage of FLICE” value is given as “stimulated FLICE cleavage”.
